Assay results taken from patent publication US20130109616A1, “ANTIMICROBIAL PEPTIDES” (priority 2010, published 2013).
“Also recorded” adds a separate entry of the source.

Experiments:
E. coli = assay: Modified microtitre broth dilution, IC50/IC90; type: cell-based, Escherichia coli; parameters: unit not given here
Vaccinia virus = type: cell-based
[1] = test system: B. anthracis UM23-CI2 vegetative cells; type: cell-based, Bacillus anthracis
[2] = test system: B. anthracis UM23-CI2 spores; type: cell-based, Bacillus anthracis
[3] = test system: Burkholderia cepacia J2540; type: cell-based
[4] = test system: subtilisin or V8 protease; assay: Protease resistance: membrane-binding ELISA after protease pre-incubation; conditions: subtilisin and/or V8 protease, 30 minutes at room temperature, FIG. 1
[5] = test system: Bacillus subtilis membranes; assay: Membrane-binding ELISA; conditions: expressed peptide fused to 3×FLAG-10×His, no protease
[6] = test system: Candida albicans (SC5314); assay: Serial dilution growth/killing assay; type: cell-based; conditions: serial dilutions, 14 hours at 30° C., FIG. 6; peptides C-terminally amidated
[7] = test system: Staphylococcus aureus (NC131142); assay: Serial dilution growth/killing assay; type: cell-based; conditions: peptides C-terminally amidated

## FKRIVQRIKDFLRKLVPRIMS [Peptide H04]
E. coli
  IC50: 7.8-15.6
  IC90: 15.6-31.3
Vaccinia virus
  anti-viral activity against Vaccinia virus compared with LL-37: greater anti-viral activity than the wild-type peptide, LL-37
[1]
  change in cell number, exponential phase cells: further reductions in cell number
  duration of antibacterial activity, vegetative cells: still effective at the end of the 24-hour period
[2]
  bactericidal activity against Bacillus anthracis spores (in words): improved bactericidal activity
  duration of antibacterial activity, spores: still effective at the end of the 24-hour period
[3]
  activity against B. cepacia at 24 hours: no bacteria were detectable; also recorded: effective killing activity over the entire duration of the 24-hour testing period
  reduction of the starting culture of B. cepacia: 99.9%

## VKRIVQRIKVFLRNLMPRSKS [Peptide G11]
[4]
  ELISA binding signal after protease treatment (proteolytic resistance): increase signal strength
E. coli
  IC50: 31.3-62.5
  IC90: 62.5-125
[2]
  bactericidal activity against Bacillus anthracis spores (in words): improved bactericidal activity
[3]
  effect on growth of B. cepacia: prevent B. cepacia from growing

## LLGVFFRKRKAKIGKKFKRILQRIKDFRRNLVPRIKS [Peptide C11]
E. coli
  IC50: 15.6-31.3
  IC90: 31.3-62.5
[2]
  bactericidal activity against Bacillus anthracis spores (in words): improved bactericidal activity
[3]
  effect on growth of B. cepacia: prevent B. cepacia from growing

## wild-type full length LL-37 peptide fused to 3×FLAG-10×His [reference compound]
[4]
  ELISA binding signal after protease treatment (proteolytic resistance): abolished the signal
[5]
  binding to immobilised Bacillus subtilis membranes (ELISA signal): significant binding

## LLGDFFRKSKEKIGKEFKRIVQRIKDFLRNLVPRTES [LL-37, reference compound]
E. coli
  IC50: 15.6-31.3
  IC90: 15.6-31.3
[1]
  activity against Bacillus anthracis vegetative cells (in words): did not have activity
[2]
  bactericidal activity against Bacillus anthracis spores (in words): better activity than MA-22
  duration of antibacterial activity, spores: activity was lost within the 24 hour period
[3]
  effect on growth of B. cepacia: no effect on the growth

## FRRIVQRIKDFLRNLVMRRKN [Peptide F11, FRRIVQRIKDFLRNLV MRRKN]
E. coli
  IC50: 7.8-15.6
  IC90: 7.8-15.6
Vaccinia virus
  anti-viral activity against Vaccinia virus compared with LL-37: greater anti-viral activity than the wild-type peptide, LL-37
[6]
  killing of C. albicans compared with MAF-23 peptides: killed C. albicans more effectively than the wild type peptides MAF23 and acetylated MAF23
[7]; 25 nM peptide
  colonies recovered, S. aureus: approximately 10^3 colonies/ml
[7]; serial dilutions, 14 hours at 30° C., FIG. 5
  killing of S. aureus compared with MAF-23 peptides: killed S. aureus more effectively than the MA23 or N-terminally acetylated MA23
[1]
  change in cell number, exponential phase cells: further reductions in cell number
  duration of antibacterial activity, vegetative cells: still effective at the end of the 24-hour period
[2]
  bactericidal activity against Bacillus anthracis spores (in words): improved bactericidal activity
  duration of antibacterial activity, spores: still effective at the end of the 24-hour period
[3]
  activity against B. cepacia at 24 hours: effective killing activity over the entire duration of the 24-hour testing period
  reduction of the starting culture of B. cepacia: ~99%
